Several values for one entry are separate records, joined by “and”; a condition that tells them apart may be missing. Equal values may be shown once.
Tests used:
[1] = Molar enthalpy of transition or fusion; settings: Crystal; DSC
[2] = for Normal melting temperature: DTA

COc1ccccc1C(=O)O [2-methoxybenzoic acid]
Settings | Molar enthalpy of transition or fusion [kcal/mol]
[1] | 5.71

[2]
Settings | vapor or sublimation pressure
318.25 K, Crystal, Closed cell (Static) method | 6.16e-05 kPa
320.73 K, Crystal, Closed cell (Static) method | 8.28e-05 kPa
323.21 K, Crystal, Closed cell (Static) method | 0.0001133 kPa
325.68 K, Crystal, Closed cell (Static) method | 0.0001504 kPa
328.17 K, Crystal, Closed cell (Static) method | 0.0002043 kPa
330.65 K, Crystal, Closed cell (Static) method | 0.0002676 kPa
333.12 K, Crystal, Closed cell (Static) method | 0.0003567 kPa
335.61 K, Crystal, Closed cell (Static) method | 0.0004802 kPa
335.62 K, Crystal, Closed cell (Static) method | 0.0004752 kPa
338.08 K, Crystal, Closed cell (Static) method | 0.0006182 kPa
340.58 K, Crystal, Closed cell (Static) method | 0.000822 kPa and 0.0008262 kPa
343.05 K, Crystal, Closed cell (Static) method | 0.001076 kPa
344.3 K, Crystal, Transpiration method | 0.00121 kPa
345.3 K, Crystal, Transpiration method | 0.00133 kPa
345.4 K, Crystal, Transpiration method | 0.00133 kPa
345.54 K, Crystal, Closed cell (Static) method | 0.001402 kPa
346.4 K, Crystal, Transpiration method | 0.0015 kPa
347.2 K, Crystal, Transpiration method | 0.00163 kPa
347.4 K, Crystal, Transpiration method | 0.00164 kPa
348.02 K, Crystal, Closed cell (Static) method | 0.001813 kPa
348.34 K, Crystal, Closed cell (Static) method | 0.001883 kPa
348.4 K, Crystal, Transpiration method | 0.00179 kPa
349.2 K, Crystal, Transpiration method | 0.00196 kPa
350.4 K, Crystal, Transpiration method | 0.0023 kPa
350.5 K, Crystal, Closed cell (Static) method | 0.002351 kPa
350.82 K, Crystal, Closed cell (Static) method | 0.002438 kPa
352.4 K, Crystal, Transpiration method | 0.00275 kPa
353.3 K, Crystal, Closed cell (Static) method | 0.003074 kPa
353.5 K, Crystal, Transpiration method | 0.00317 kPa
354.5 K, Crystal, Transpiration method | 0.00349 kPa
355.5 K, Crystal, Transpiration method | 0.00377 kPa
355.78 K, Crystal, Closed cell (Static) method | 0.003984 kPa
356.5 K, Crystal, Transpiration method | 0.00408 kPa
357.6 K, Crystal, Transpiration method | 0.00472 kPa
358.26 K, Crystal, Closed cell (Static) method | 0.005029 kPa
358.4 K, Crystal, Transpiration method | 0.00508 kPa
359.5 K, Crystal, Transpiration method | 0.00566 kPa
360.5 K, Crystal, Transpiration method | 0.00637 kPa
360.75 K, Crystal, Closed cell (Static) method | 0.006481 kPa
361.6 K, Crystal, Transpiration method | 0.00677 kPa
362.5 K, Crystal, Transpiration method | 0.00755 kPa
363.23 K, Crystal, Closed cell (Static) method | 0.008104 kPa
363.6 K, Crystal, Transpiration method | 0.00827 kPa
364.5 K, Crystal, Transpiration method | 0.00908 kPa
365.71 K, Crystal, Closed cell (Static) method | 0.01039 kPa
366.4 K, Crystal, Transpiration method | 0.0107 kPa
366.6 K, Crystal, Transpiration method | 0.01098 kPa
368.19 K, Crystal, Closed cell (Static) method | 0.01325 kPa
368.6 K, Crystal, Transpiration method | 0.01323 kPa
369.6 K, Crystal, Transpiration method | 0.01454 kPa
378.32 K, Liquid, Closed cell (Static) method | 0.0318 kPa
378.33 K, Liquid, Closed cell (Static) method | 0.0318 kPa
380.81 K, Liquid, Closed cell (Static) method | 0.0371 kPa
380.82 K, Liquid, Closed cell (Static) method | 0.0371 kPa
383.29 K, Liquid, Closed cell (Static) method | 0.0435 kPa
383.32 K, Liquid, Closed cell (Static) method | 0.0435 kPa
385.78 K, Liquid, Closed cell (Static) method | 0.0507 kPa and 0.0504 kPa
388.26 K, Liquid, Closed cell (Static) method | 0.0588 kPa
388.29 K, Liquid, Closed cell (Static) method | 0.0585 kPa
390.97 K, Liquid, Closed cell (Static) method | 0.0691 kPa
390.98 K, Liquid, Closed cell (Static) method | 0.0695 kPa
393.47 K, Liquid, Closed cell (Static) method | 0.0797 kPa and 0.0801 kPa
395.94 K, Liquid, Closed cell (Static) method | 0.0929 kPa
395.95 K, Liquid, Closed cell (Static) method | 0.0933 kPa
398.44 K, Liquid, Closed cell (Static) method | 0.1072 kPa and 0.1071 kPa
400.91 K, Liquid, Closed cell (Static) method | 0.1239 kPa
400.94 K, Liquid, Closed cell (Static) method | 0.1244 kPa
403.41 K, Liquid, Closed cell (Static) method | 0.1413 kPa
403.44 K, Liquid, Closed cell (Static) method | 0.1428 kPa
405.88 K, Liquid, Closed cell (Static) method | 0.1621 kPa
405.89 K, Liquid, Closed cell (Static) method | 0.1621 kPa
408.38 K, Liquid, Closed cell (Static) method | 0.1849 kPa
408.39 K, Liquid, Closed cell (Static) method | 0.1865 kPa
410.85 K, Liquid, Closed cell (Static) method | 0.2113 kPa
410.87 K, Liquid, Closed cell (Static) method | 0.2131 kPa
413.34 K, Liquid, Closed cell (Static) method | 0.2389 kPa
413.38 K, Liquid, Closed cell (Static) method | 0.242 kPa

Settings | Normal melting temperature [°C]
[2], Crystal | 101.6

Cc1ccccc1C(=O)O [2-methylbenzoic acid]
[2], Crystal, Transpiration method
Settings | vapor or sublimation pressure [kPa]
331.2 K | 0.0028
335.2 K | 0.00421
341.2 K | 0.00767
345.2 K | 0.0112
348.2 K | 0.01564
351.2 K | 0.01962
355.4 K | 0.02895
358.6 K | 0.0389
358.7 K | 0.03932
361.2 K | 0.05138
364.2 K | 0.06664
367.4 K | 0.08391
373 K | 0.1339

COc1cccc(C(=O)O)c1 [3-methoxybenzoic acid]
Settings | Molar enthalpy of transition or fusion [kcal/mol]
[1] | 5.23

Settings | Normal melting temperature [°C]
[2], Crystal | 109.0

COc1ccc(C(=O)O)cc1 [4-methoxybenzoic acid]
[2], Crystal, Transpiration method
Settings | vapor or sublimation pressure [kPa]
363.3 K | 0.00117
368.2 K | 0.0019
374.9 K | 0.00353
383.2 K | 0.00753
384.5 K | 0.0085
388.3 K | 0.01217
391.1 K | 0.01556
394.2 K | 0.01971
397.2 K | 0.0267
400.3 K | 0.03247
403.4 K | 0.04422
406.2 K | 0.05311

Cc1ccc(C(=O)O)cc1 [4-methylbenzoic acid]
Settings | Molar enthalpy of transition or fusion [kcal/mol]
[1] | 5.33

[2], Crystal, Transpiration method
Settings | vapor or sublimation pressure [kPa]
340.4 K | 0.00123
343.3 K | 0.00162
348.5 K | 0.00271
356.7 K | 0.00558
359.3 K | 0.00715
363.9 K | 0.01097
368.5 K | 0.01623
373.7 K | 0.02473
374.4 K | 0.02687
378.8 K | 0.03813
380.1 K | 0.04273
384.4 K | 0.05807
389.2 K | 0.08453
394 K | 0.1213
398.8 K | 0.1748

Settings | Normal melting temperature [°C]
[2], Crystal | 180.2

O=C(O)c1ccccc1 [benzoic acid]
[2], Crystal
Settings | vapor or sublimation pressure [kPa]
297.67 K, Closed cell (Static) method | 0.000108
299.96 K, Closed cell (Static) method | 0.000142
300.03 K, Closed cell (Static) method | 0.000143
302.51 K, Closed cell (Static) method | 0.000193
304.75 K, Closed cell (Static) method | 0.00025
307.27 K, Closed cell (Static) method | 0.000335
309.63 K, Closed cell (Static) method | 0.000436
312.08 K, Closed cell (Static) method | 0.000573
314.4 K, Closed cell (Static) method | 0.000738
314.59 K, Closed cell (Static) method | 0.000754
316.3 K, Transpiration method | 0.00095
316.91 K, Closed cell (Static) method | 0.000969
319.48 K, Closed cell (Static) method | 0.00127
320.4 K, Transpiration method | 0.00147
321.91 K, Closed cell (Static) method | 0.00164
324 K, Transpiration method | 0.00214
324.39 K, Closed cell (Static) method | 0.00212
326.76 K, Closed cell (Static) method | 0.00268
327.4 K, Transpiration method | 0.00302
329.2 K, Closed cell (Static) method | 0.00343
331.62 K, Closed cell (Static) method | 0.00436
332.4 K, Transpiration method | 0.00495
334.07 K, Closed cell (Static) method | 0.00554
336.46 K, Closed cell (Static) method | 0.00693
337.4 K, Transpiration method | 0.00809
338.98 K, Closed cell (Static) method | 0.00873
342.3 K, Transpiration method | 0.01272
347.3 K, Transpiration method | 0.01965
352.4 K, Transpiration method | 0.03114
357.4 K, Transpiration method | 0.04619
362.5 K, Transpiration method | 0.06987
367.5 K, Transpiration method | 0.1076

Source: the NIST ThermoML archive (doi:10.1016/j.tca.2015.03.026)
